Laboratory results: patent US20230278998A1, “Compound containing structure of a five-membered heteroaromatic ring, pharmaceutical compositions thereof and applications thereof” (280 Bio, Inc., priority 2022, published 2023)

Target: PARG (389-976) (Homo sapiens (Human), UniProt Q86W56)
Assay: PARG enzyme inhibition assay (TR-FRET)
Type: biochemical
Details: Table 3, class symbol
Method: PARG Enzyme Inhibition Assay
PARG in vitro assays were conducted in standard 384-well plates in a total volume of 15 μL.

Sequence of PARG (389-976) (Q86W56 389-976): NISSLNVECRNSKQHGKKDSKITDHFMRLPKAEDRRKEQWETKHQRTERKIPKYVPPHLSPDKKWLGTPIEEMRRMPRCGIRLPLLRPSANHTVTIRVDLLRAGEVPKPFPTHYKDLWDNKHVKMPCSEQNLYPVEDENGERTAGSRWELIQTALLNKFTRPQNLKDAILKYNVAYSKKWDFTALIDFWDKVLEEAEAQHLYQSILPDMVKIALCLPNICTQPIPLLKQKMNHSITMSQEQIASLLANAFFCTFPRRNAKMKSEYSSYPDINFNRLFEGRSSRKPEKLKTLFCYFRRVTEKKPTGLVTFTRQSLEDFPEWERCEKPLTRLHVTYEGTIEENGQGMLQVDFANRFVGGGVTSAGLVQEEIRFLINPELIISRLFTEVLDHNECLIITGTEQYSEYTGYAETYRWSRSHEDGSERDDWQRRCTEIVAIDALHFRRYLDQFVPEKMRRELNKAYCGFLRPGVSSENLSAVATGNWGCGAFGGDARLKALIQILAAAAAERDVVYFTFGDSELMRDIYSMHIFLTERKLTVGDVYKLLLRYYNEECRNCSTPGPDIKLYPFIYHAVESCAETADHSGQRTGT

IC50 | Structure (SMILES)
< 100 nM | C[C@H](O)C(=O)N1C2CCC1CN(c1cc(S(=O)(=O)NC3(C#N)CC3)cc3c(-c4nnc(C(F)F)s4)nn(C)c13)C2 [Compound 72]
< 100 nM | C[C@H](N)C(=O)N1C2CCC1CN(c1cc(S(=O)(=O)NC3(C#N)CC3)cc3c(-c4nnc(C(F)F)s4)nn(C)c13)C2 [Compound 73]
< 100 nM | CN1CCC(C(=O)N2C3CCC2CN(c2cc(S(=O)(=O)NC4(C#N)CC4)cc4c(-c5nnc(C(F)F)s5)nn(C)c24)C3)C1 (stereo not drawn) [Compound 74]
< 100 nM | Cn1nc(-c2nnc(C(F)F)s2)c2cc(S(=O)(=O)NC3(C#N)CC3)cc(N3CC4CCC(C3)N4C(=O)C3CCCC3)c21 [Compound 75]
< 100 nM | Cn1nc(-c2nnc(C(F)F)s2)c2cc(S(=O)(=O)NC3(C#N)CC3)cc(N3CCC(C(C)(C)O)CC3)c21 [Compound 76]
< 100 nM | CC(C)C(=O)N1CC2(C1)CN(c1cc(S(=O)(=O)NC3(C#N)CC3)cc3c(-c4nnc(C(F)F)s4)nn(C)c13)C2 [Compound 77]
< 100 nM | C[C@H](O)C(=O)N1C2C=C(c3cc(S(=O)(=O)NC4(C#N)CC4)cc4c(-c5nnc(C(F)F)s5)nn(C)c34)CC1CC2 (stereo partly drawn) [Compound 80]
< 100 nM | C[C@H](N)C(=O)N1CC=C(c2cc(S(=O)(=O)NC3(C#N)CC3)cc3c(-c4nnc(C(F)F)s4)nn(C)c23)CC1 [Compound 81]
< 100 nM | CC(C)C(=O)N1CCN(c2cc(S(=O)(=O)NC3(C)CC3)cc3c(-c4nnc(C(F)F)s4)nn(C)c23)C[C@@H]1C [Compound 82]
< 100 nM | CC(C)C(=O)N1C2C=C(c3cc(S(=O)(=O)NC4(C#N)CC4)cc4c(-c5nnc(C(F)F)s5)nn(C)c34)CC1CCC2 (stereo not drawn) [Compound 83]
< 100 nM | CC(C)C(=O)N1C2C=C(c3cc(S(=O)(=O)NC4(C#N)CC4)cc4c(-c5nnc(C(F)F)s5)nn(C)c34)CC1COC2 (stereo not drawn) [Compound 85]
< 100 nM | CC(C)C(=O)N1C2COCC1CN(c1cc(S(=O)(=O)NC3(C#N)CC3)cc3c(-c4nnc(C(F)F)s4)nn(C)c13)C2 [Compound 86]
< 100 nM | Cn1nc(-c2nnc(C(F)F)s2)c2cc(S(=O)(=O)NC3(C#N)CC3)cc(N3CCC(C(=O)N4CCCC4)CC3)c21 [Compound 89]
< 100 nM | CN(C)C(=O)C1CCN(c2cc(S(=O)(=O)NC3(C#N)CC3)cc3c(-c4nnc(C(F)F)s4)nn(C)c23)CC1 [Compound 90]
< 100 nM | CCn1nc(-c2nnc(C(F)F)s2)c2cc(S(=O)(=O)NC3(C)CC3)cc(N3CCN(C(=O)C(C)C)[C@@H](C)C3)c21 [Compound 92]
< 100 nM | CC(C)C(=O)N1C2CCC1CN(c1cc(S(=O)(=O)NC3(C#N)CC3)cc3c(-c4nnc(C(F)F)s4)nn(CC(F)(F)F)c13)C2 [Compound 95]
100 to 1000 nM | COc1ccc(CN(C2(C#N)CC2)S(=O)(=O)c2cc(N3CC4CCC(C3)N4C(=O)C(C)C)c3c(c2)c(-c2nnc(C(F)F)s2)nn3CCO)cc1 [Compound 96]
< 100 nM | C[C@H](N)C(=O)N1CCC(c2cc(S(=O)(=O)NC3(C#N)CC3)cc3c(-c4nnc(C(F)F)s4)nn(C)c23)CC1 [Compound 98]
< 100 nM | COCCn1nc2c(N3CC4CCC(C3)N4C(=O)C(C)C)cc(S(=O)(=O)NC3(C#N)CC3)cc2c1-c1nnc(C(F)F)s1 [Compound 99]
< 100 nM | CCn1nc(-c2nnc(C(F)F)s2)c2cc(S(=O)(=O)NC3(C#N)CC3)cc(N3CCN(C(=O)C(C)C)[C@H](C)C3)c21 [Compound 103]
< 100 nM | CC(C)C(=O)N1[C@H](C)CN(c2cc(S(=O)(=O)NC3(C#N)CC3)cc3c(-c4nnc(C(F)F)s4)nn(CC(F)(F)F)c23)C[C@@H]1C [Compound 104]
< 100 nM | CC(C)(O)C1CCN(c2cc(S(=O)(=O)NC3(C#N)CC3)cc3c(-c4nnc(C(F)F)s4)nn(CC(F)(F)F)c23)CC1 [Compound 105]

IC50 | Structure (SMILES)
< 100 nM | Cn1nc(-c2nnc(C(F)F)s2)c2cc(S(=O)(=O)NC3(C#N)CC3)cc(N3CC4(CCOCC4)C3)c21 [Compound 106]
< 100 nM | CC(C)C(=O)N1CC=C(c2cc(S(=O)(=O)NC3(C#N)CC3)cc3c(-c4nnc(C(F)F)s4)nn(CC(F)(F)F)c23)CC1 [Compound 107]
< 100 nM | CC(C)C(=O)N1CCN(c2cc(S(=O)(=O)NC3(C#N)CC3)cc3c(-c4nnc(C(F)F)s4)nn(CC(F)(F)F)c23)C[C@@H]1C [Compound 108]
< 100 nM | CC(C)C(=O)N1CCN(c2cc(S(=O)(=O)NC3(C#N)CC3)cc3c(-c4nnc(C(F)F)s4)nn(CC(F)(F)F)c23)C[C@H]1C [Compound 109]
< 100 nM | C[C@H](O)C(=O)N1CCN(c2cc(S(=O)(=O)NC3(C#N)CC3)cc3c(-c4nnc(C(F)F)s4)nn(CC(F)(F)F)c23)CC1 [Compound 110]
< 100 nM | C[C@H](N)C(=O)N1CCN(c2cc(S(=O)(=O)NC3(C#N)CC3)cc3c(-c4nnc(C(F)F)s4)nn(CC(F)(F)F)c23)CC1 [Compound 111]
< 100 nM | Cn1nc(-c2nnc(C(F)F)s2)c2cc(S(=O)(=O)NC3(C#N)CC3)cc(N3CC4CCC(C3)C4C(=O)N3CCCC3)c21 (stereo not drawn) [Compound 113]
< 100 nM | C[C@H](O)C(=O)N1CCC(c2cc(S(=O)(=O)NC3(C#N)CC3)cc3c(-c4nnc(C(F)F)s4)nn(C)c23)CC1 [Compound 114]
< 100 nM | CC(C)C(=O)N1CCN(c2cc(S(=O)(=O)NC3(C#N)CC3)cc3c(-c4nnc(C(F)F)s4)nn(CC#N)c23)C[C@H]1C [Compound 115]
< 100 nM | CC(C)C(=O)N1CCC(c2cc(S(=O)(=O)NC3(C#N)CC3)cc3c(-c4nnc(C(F)F)s4)nn(C)c23)CC1 [Compound 116]
< 100 nM | N#CC1(NS(=O)(=O)c2cc(C3=CC4CCC(C3)N4C(=O)C3CCCC3)c3c(c2)c(-c2nnc(C(F)F)s2)nn3CC(F)(F)F)CC1 (stereo not drawn) [Compound 119]
< 100 nM | CC(C)C(=O)N1C2C=C(c3cc(S(=O)(=O)NC4(C#N)CC4)cc4c(-c5nnc(C(F)F)s5)nn(C)c34)CC1CC2 (stereo not drawn) [Compound 120]
< 100 nM | CC(C)C(=O)N1C2CCC1CN(c1cc(S(=O)(=O)NC3(C#N)CC3)cc3c(-c4nnc(C(F)F)s4)nn(CC#N)c13)C2 [Compound 122]
< 100 nM | CC(C)C(=O)N1C2CCC1CC(c1cc(S(=O)(=O)NC3(C#N)CC3)cc3c(-c4nnc(C(F)F)s4)nn(C)c13)C2 (stereo not drawn) [Compound 127]
100 to 1000 nM | Cn1nc(-c2nnc(C(F)F)s2)c2cc(S(=O)(=O)NC3(C#N)CC3)cc(N3CC4CCC(C3)C4C(C)(C)O)c21 (stereo not drawn) [Compound 130]
< 100 nM | N#CC1(NS(=O)(=O)c2cc(N3CC4(CCOCC4)C3)c3c(c2)c(-c2nnc(C(F)F)s2)nn3CC(F)(F)F)CC1 [Compound 133]
< 100 nM | Cn1nc(-c2nnc(C(F)F)s2)c2cc(S(=O)(=O)NC3(C#N)CC3)cc(N3CCC(N4CCCC4)CC3)c21 [Compound 134]
< 100 nM | Cn1nc(-c2nnc(C(F)F)s2)c2cc(S(=O)(=O)NC3(C#N)CC3)cc(-c3ccc(C(=O)N4CCCC4)cc3)c21 [Compound 135]
< 100 nM | Cn1nc(-c2nnc(C(F)F)s2)c2cc(S(=O)(=O)NC3(C#N)CC3)cc(N3CCN(C(=O)C4CCCC4)CC3)c21 [Compound 142]
< 100 nM | Cn1nc(-c2nnc(C(F)F)s2)c2cc(S(=O)(=O)NC3(C#N)CC3)cc(N3CCN(C(=O)C4(C)CCC4)CC3)c21 [Compound 143]
< 100 nM | Cn1nc(-c2nnc(C(F)F)s2)c2cc(S(=O)(=O)NC3(C#N)CC3)cc(N3CCN(C(=O)C4CCC4)CC3)c21 [Compound 144]

Structure (SMILES) | IC50
C[C@H](N)C(=O)N1C2C=C(c3cc(S(=O)(=O)NC4(C#N)CC4)cc4c(-c5nnc(C(F)F)s5)nn(C)c34)CC1CC2 (stereo partly drawn) [Compound 79] | < 100 nM
CC(C)C(=O)N1C2CCCC1CN(c1cc(S(=O)(=O)NC3(C#N)CC3)cc3c(-c4nnc(C(F)F)s4)nn(C)c13)C2 [Compound 84] | < 100 nM
CCn1nc(-c2nnc(C(F)F)s2)c2cc(S(=O)(=O)NC3(C#N)CC3)cc(N3CC4CCC(C3)N4C(=O)C(C)C)c21 [Compound 93] | < 100 nM
CCn1nc(-c2nnc(C(F)F)s2)c2cc(S(=O)(=O)NC3(C#N)CC3)cc(N3C4CCC3CN(C(=O)C(C)C)C4)c21 [Compound 94] | < 100 nM
CC(C)C(=O)N1CC2CCC(C1)N2c1cc(S(=O)(=O)NC2(C#N)CC2)cc2c(-c3nnc(C(F)F)s3)nn(C)c12 [Compound 101] | < 100 nM
CC(C)C(=O)N1C2CCC1CN(c1cc(S(=O)(=O)NC3(C#N)CC3)cc3c(-c4nnc(C(F)F)s4)nn(C)c13)C2 [Compound 102] | < 100 nM
CC(C)C(=O)N1CCN2c3cc(S(=O)(=O)NC4(C#N)CC4)cc4c(-c5nnc(C(F)F)s5)nn(c34)CC2C1 (stereo not drawn) [Compound 117] | < 100 nM
Cn1nc(-c2nnc(C(F)F)s2)c2cc(S(=O)(=O)NC3(C#N)CC3)cc(C3CC4CCC(C3)N4)c21 (stereo not drawn) [Compound 121] | < 100 nM
CC(C)C(=O)N1C2CCC1CN(c1cc(S(=O)(=O)NC3(C#N)CC3)cc3c(-c4nnc(C(F)F)s4)cn(C)c13)C2 [Compound 123] | < 100 nM
C[C@H](N)C(=O)N1C2CCC1CC(c1cc(S(=O)(=O)NC3(C#N)CC3)cc3c(-c4nnc(C(F)F)s4)nn(C)c13)C2 (stereo partly drawn) [Compound 128] | < 100 nM
CC(C)C(=O)N1CCN(c2cc(S(=O)(=O)NC(C)(C)C)cc3c(-c4nnc(C(F)F)s4)nn(C)c23)CC1 [Compound 131] | < 100 nM
CN(C)C(=O)c1ccc(-c2cc(S(=O)(=O)NC3(C#N)CC3)cc3c(-c4nnc(C(F)F)s4)nn(C)c23)cc1 [Compound 132] | < 100 nM
CC(C)C(=O)N1CC=C(c2cc(S(=O)(=O)NC3(C#N)CC3)cc3c(-c4nnc(C(F)F)s4)nn(C[C@@H](O)CO)c23)CC1 [Compound 136] | < 100 nM
Cn1nc(-c2nnc(C(F)F)s2)c2cc(S(=O)(=O)NC3(C#N)CC3)cc(C3=CCC(C(=O)N4CCCC4)CC3)c21 (stereo not drawn) [Compound 137] | < 100 nM
Cn1nc(-c2nnc(C(F)F)s2)c2cc(S(=O)(=O)NC3(C#N)CC3)cc(N3CCC(N4CCCC4=O)CC3)c21 [Compound 139] | < 100 nM
Cn1nc(-c2nnc(C(F)F)s2)c2cc(S(=O)(=O)NC3(C#N)CC3)cc(C3CCC(C(=O)N4CCCC4)CC3)c21 (stereo not drawn) [Compound 140] | < 100 nM
CC(C)S(=O)(=O)N1CC=C(c2cc(S(=O)(=O)NC3(C#N)CC3)cc3c(-c4nnc(C(F)F)s4)nn(C)c23)CC1 [Compound 141] | < 100 nM
